Patent US8592172B2, “Bioluminescent assays using cyanobenzothiazole compounds” (Promega Corporation, priority 2010, dated 2013)

Key:
[1] = molecular target: Human recombinant CYP450 1A2 (Homo sapiens, UniProt P05177)
Method: (§1) Equal volumes of P450-Glo LDR with 6.6 mM D-Cysteine was added into the CYP450 reactions.

[2] = test system: CYP450 1A2 activity in human liver microsomes; assay: Human liver microsome assay with compound 3019
Method: as §1

CYP1A2 [3] = assay: Non-lytic cell-based assay with human hepatocytes, compound 3019; conditions: non-lytic, 3 μM compound 3019, 1 hour
Method: Human cryopreserved hepatocytes (Celsis lot RTM) were thawed and seeded in hepatocyte culture medium in wells of a collagen-coated, 96-well culture plate at ˜70,000 cells per well and kept at 37° C. in standard cell culture incubator with 5% CO2. The cells were then treated for 48 hours with 100 μM omeprazole or vehicle control (0.1% dimethylsulfoxide) dissolved in hepatocytes culture medium (n═3 for each treatment, mean values and standard deviations are shown). […] 50 μl of the KH incubation buffer was then removed from each well and transferred to a well of a white, 96-well luminometer plate (Costar) where it was also combined with 50 μl of P450-Glo LDR containing 6.6 mM D-cysteine.

UGT 1A1 = molecular target: T1, UGT 1A1 (Homo sapiens, UniProt P22309); assay: Inhibition of recombinant UGT 1A1 Supersomes, compound 3138 as substrate; assay type: biochemical; conditions: 20 μM compound 3138, 0.1 mg/mL Supersomes, 90 minutes at 37° C.
T1 construct: purchased BD Gentest; host or cells: insect cells (microsomes)
T1 sequence (P22309 26-533): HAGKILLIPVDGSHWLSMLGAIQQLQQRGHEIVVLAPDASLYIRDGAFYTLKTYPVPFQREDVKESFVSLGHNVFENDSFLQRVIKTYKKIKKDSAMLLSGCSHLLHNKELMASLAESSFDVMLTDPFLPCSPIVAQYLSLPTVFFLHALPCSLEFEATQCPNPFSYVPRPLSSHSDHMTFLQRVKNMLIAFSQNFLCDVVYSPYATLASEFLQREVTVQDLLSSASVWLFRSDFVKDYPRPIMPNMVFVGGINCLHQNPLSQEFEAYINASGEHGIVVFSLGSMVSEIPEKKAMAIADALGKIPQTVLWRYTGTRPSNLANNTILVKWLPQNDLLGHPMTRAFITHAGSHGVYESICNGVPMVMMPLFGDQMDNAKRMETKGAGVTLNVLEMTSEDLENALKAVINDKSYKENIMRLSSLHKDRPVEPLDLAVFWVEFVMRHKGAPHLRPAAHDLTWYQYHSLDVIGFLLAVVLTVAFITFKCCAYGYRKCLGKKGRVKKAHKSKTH
Method: Following the UGT enzyme reaction, an equal volume of P450-Glo Luciferin Detection Reagent (LDR) (Promega) containing 15-30 mM D-cysteine-HCl.H2O (Sigma) was added and the plate was mixed and incubated at room temperature, typically for 20-30 minutes. P450-Glo Luciferin Detection Reagent contains a luciferase reaction mixture that includes a recombinant firefly luciferase, ATP and Mg^2+.
After 2 hours at 37° C., 10 μL of 50 mM D-cysteine-HCl.H2O diluted in 200 mM HEPES, pH 8.0 was added to each 40 μL UGT reaction. After 10 minute incubations, 50 μL P450-Glo LDR (Promega) was added to each well, and bioluminescence was measured.
After 90 minutes at 37° C., 40 μL of P450-Glo LDR plus 20 mM D-cysteine was added to each 40 μL reaction and mixed. After 20 minutes at room temperature, bioluminescence was measured on a luminometer.

[4] = test system: UGT activity in human liver microsomes (HLM); assay: Inhibition of UGT activity in human liver microsomes, compound 3138 as substrate; assay type: biochemical; conditions: 50 μM compound 3138, 0.1 mg/mL HLM, 15 minutes at 37° C.; read-out: IC50 for HLM utilization of compound 3138
Method: To assess the ability of these compounds to inhibit UGT activity in HLM, reactions were set up as follows. […] Sulfinpyrazone, quinidine, and androsterone were used at a final concentration of 0.5 mM. 1-Naphthol, scopoletin, umbelliferne, and 7-hydroxy-4-trifluoromethyl coumarin were used at a final concentration of 1 mM. […] Valproate was used at a final concentration of 10 mM. All reactions were compared to their corresponding vehicle control sample containing either water, DMSO, or ethanol.

[5] = test system: UGT isozymes in human hepatocytes; conditions: diclofenac, 15-20 minutes at 37° C.
UGT isozymes = UGT isozymes currently reported in the literature; cited from earlier work
CYP1A2 [6] = assay: Non-lytic assay with rat hepatocytes, compound 3019; assay type: cell-based; conditions: 10 nM TCDD 48 hours, 3 μM compound 3019

Human recombinant CYP450 1A2, sequence (P05177 whole entry): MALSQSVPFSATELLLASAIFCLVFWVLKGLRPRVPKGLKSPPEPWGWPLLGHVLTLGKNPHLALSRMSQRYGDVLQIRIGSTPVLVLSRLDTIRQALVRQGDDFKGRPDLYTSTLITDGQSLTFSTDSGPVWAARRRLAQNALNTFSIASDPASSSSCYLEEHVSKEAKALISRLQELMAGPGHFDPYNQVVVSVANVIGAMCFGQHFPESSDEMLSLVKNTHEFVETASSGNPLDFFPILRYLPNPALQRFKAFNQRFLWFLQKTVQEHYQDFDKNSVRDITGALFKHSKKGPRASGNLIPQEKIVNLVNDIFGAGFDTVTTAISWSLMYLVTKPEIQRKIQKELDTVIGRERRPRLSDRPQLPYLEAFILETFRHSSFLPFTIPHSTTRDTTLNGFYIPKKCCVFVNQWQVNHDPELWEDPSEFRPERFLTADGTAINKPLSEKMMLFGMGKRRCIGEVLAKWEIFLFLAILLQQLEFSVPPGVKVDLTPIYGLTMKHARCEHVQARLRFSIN

## CC(C)OC(OC(C)C)C1CSC(c2nc3ccc(O)cc3s2)=N1 (centres unmarked) [Compound 3019]
[1]
  substrate status for CYP450 1A2: is indeed a CYP450 1A2 substrate
[2]
  activity with compound 3019 in human liver microsomes: substantial activity
CYP1A2 [3]
  entry of substrate into cells: entered the cell

## O=C(O)Cc1ccccc1Nc1c(Cl)cccc1Cl [Diclofenac]
UGT 1A1
  IC50: 232 µM
[4]
  IC50: 60 µM
[5]
  inhibition of compound 3138 conversion in hepatocytes: inhibited
UGT isozymes
  Isozymes Modulated: Inhibits most isozymes

## Clc1cc2c(cc1Cl)Oc1cc(Cl)c(Cl)cc1O2 [TCDD, 2,3,7,8-tetrachlorodibenzo-p-dioxin]
CYP1A2 [6]
  change of basal signal (CYP1A2 induction): significantly increased
